# Data: ChEMBL document CHEMBL2331210, “New 2-benzylsulfanyl-nicotinic acid based 1,3,4-oxadiazoles: their synthesis and biological evaluation” (2013)
# What was measured:
# UO-31 = experiment: Antitumor activity against human UO31 cells assessed as cell growth at 0.1 uM; format: functional; details: read-out: Activity
# TK-10 = experiment: Antitumor activity against human TK10 cells assessed as cell growth at 0.1 uM; format: functional; details: read-out: Activity
# SN12C = experiment: Antitumor activity against human SN12C cells assessed as cell growth at 0.1 uM; format: functional; details: read-out: Activity
# RXF 393 = experiment: Antitumor activity against human RXF393 cells assessed as cell growth at 0.1 uM; format: functional; details: read-out: Activity
# ACHN = experiment: Antitumor activity against human ACHN cells assessed as cell growth at 0.1 uM; format: functional; details: read-out: Activity
# CAKI-1 = experiment: Antitumor activity against human CAKI-1 cells assessed as cell growth at 0.1 uM; format: functional; details: read-out: Activity
# A498 = experiment: Antitumor activity against human A498 cells assessed as cell growth at 0.1 uM; format: functional; details: read-out: Activity
# SK-OV-3 = experiment: Antitumor activity against human SKOV3 cells assessed as cell growth at 0.1 uM; format: functional; details: read-out: Activity
# NCI/ADR-RES = experiment: Antitumor activity against human NCI/ADR-RES cells assessed as cell growth at 0.1 uM; format: functional; details: read-out: Activity
# OVCAR-8 = experiment: Antitumor activity against human OVCAR8 cells assessed as cell growth at 0.1 uM; format: functional; details: read-out: Activity
# OVCAR-5 = experiment: Antitumor activity against human OVCAR5 cells assessed as cell growth at 0.1 uM; format: functional; details: read-out: Activity
# OVCAR-3 = experiment: Antitumor activity against human OVCAR3 cells assessed as cell growth at 0.1 uM; format: functional; details: read-out: Activity
# OVCAR-4 = experiment: Antitumor activity against human OVCAR4 cells assessed as cell growth at 0.1 uM; format: functional; details: read-out: Activity
# IGROV-1 = experiment: Antitumor activity against human IGROV1 cells assessed as cell growth at 0.1 uM; format: functional; details: read-out: Activity
# UACC-62 = experiment: Antitumor activity against human UACC62 cells assessed as cell growth at 0.1 uM; format: functional; details: read-out: Activity
# UACC-257 = experiment: Antitumor activity against human UACC257 cells assessed as cell growth at 0.1 uM; format: functional; details: read-out: Activity
# SK-MEL-5 = experiment: Antitumor activity against human SK-MEL-5 cells assessed as cell growth at 0.1 uM; format: functional; details: read-out: Activity
# SK-MEL-28 = experiment: Antitumor activity against human SK-MEL-28 cells assessed as cell growth at 0.1 uM; format: functional; details: read-out: Activity
# MDA-MB-435 = experiment: Antitumor activity against human MDA-MB-435 cells assessed as cell growth at 0.1 uM; format: functional; details: read-out: Activity
# M14 = experiment: Antitumor activity against human M14 cells assessed as cell growth at 0.1 uM; format: functional; details: read-out: Activity
# Malme-3M = experiment: Antitumor activity against human MALME-3M cells assessed as cell growth at 0.1 uM; format: functional; details: read-out: Activity
# LOX IMVI = experiment: Antitumor activity against human LOXIMVI cells assessed as cell growth at 0.1 uM; format: functional; details: read-out: Activity
# U-251 = experiment: Antitumor activity against human U251 cells assessed as cell growth at 0.1 uM; format: functional; details: read-out: Activity
# SNB-75 = experiment: Antitumor activity against human SNB75 cells assessed as cell growth at 0.1 uM; format: functional; details: read-out: Activity
# SF-539 = experiment: Antitumor activity against human SF539 cells assessed as cell growth at 0.1 uM; format: functional; details: read-out: Activity
# SNB-19 = experiment: Antitumor activity against human SNB19 cells assessed as cell growth at 0.1 uM; format: functional; details: read-out: Activity
# SF-295 = experiment: Antitumor activity against human SF295 cells assessed as cell growth at 0.1 uM; format: functional; details: read-out: Activity
# SF-268 = experiment: Antitumor activity against human SF268 cells assessed as cell growth at 0.1 uM; format: functional; details: read-out: Activity
# SW-620 = experiment: Antitumor activity against human SW620 cells assessed as cell growth at 0.1 uM; format: functional; details: read-out: Activity
# HCT-15 = experiment: Antitumor activity against human HCT15 cells assessed as cell growth at 0.1 uM; format: functional; details: read-out: Activity
# HT-29 = experiment: Antitumor activity against human HT-29 cells assessed as cell growth at 0.1 uM; format: functional; details: read-out: Activity
# HCT-116 = experiment: Antitumor activity against human HCT116 cells assessed as cell growth at 0.1 uM; format: functional; details: read-out: Activity
# [1] = Antitumor activity against human HCC2998 cells assessed as cell growth at 0.1 uM; format: functional; details: HCC 2998, read-out: Activity
# NCI-H460 = experiment: Antitumor activity against human NCI-H460 cells assessed as cell growth at 0.1 uM; format: functional; details: read-out: Activity
# NCI-H522 = experiment: Antitumor activity against human NCI-H522 cells assessed as cell growth at 0.1 uM; format: functional; details: read-out: Activity
# NCI-H23 = experiment: Antitumor activity against human NCI-H23 cells assessed as cell growth at 0.1 uM; format: functional; details: read-out: Activity
# NCI-H226 = experiment: Antitumor activity against human NCI-H226 cells assessed as cell growth at 0.1 uM; format: functional; details: read-out: Activity
# HOP-62 = experiment: Antitumor activity against human HOP62 cells assessed as cell growth at 0.1 uM; format: functional; details: read-out: Activity
# [2] = Antitumor activity against human EKVX cells assessed as cell growth at 0.1 uM; format: functional; details: read-out: Activity
# A549 = experiment: Antitumor activity against human A549/ATCC cells assessed as cell growth at 0.1 uM; format: functional; details: read-out: Activity
# SR = experiment: Antitumor activity against human SR cells assessed as cell growth at 0.1 uM; format: functional; details: read-out: Activity
# MOLT-4 = experiment: Antitumor activity against human MOLT4 cells assessed as cell growth at 0.1 uM; format: functional; details: read-out: Activity
# RPMI-8226 = experiment: Antitumor activity against human RPMI8226 cells assessed as cell growth at 0.1 uM; format: functional; details: read-out: Activity
# K562 = experiment: Antitumor activity against human K562 cells assessed as cell growth at 0.1 uM; format: functional; details: read-out: Activity
# HL-60 = experiment: Antitumor activity against human HL60(TB) cells assessed as cell growth at 0.1 uM; format: functional; details: read-out: Activity
# CCRF-CEM = experiment: Antitumor activity against human CCRF-CEM cells assessed as cell growth at 0.1 uM; format: functional; details: read-out: Activity
# [3] = tested on: Mycobacterium tuberculosis; experiment: Antitubercular activity against Mycobacterium tuberculosis H37Rv assessed as growth inhibition after 12 to 28 days by L.J. agar MIC method; format: functional
# Aspergillus clavatus = experiment: Antimicrobial activity against Aspergillus clavatus MTCC 1323 assessed as growth inhibition measured after overnight incubation by broth dilution method; format: functional
# Aspergillus niger = experiment: Antimicrobial activity against Aspergillus niger MTCC 282 assessed as growth inhibition measured after overnight incubation by broth dilution method; format: functional
# Candida albicans = experiment: Antimicrobial activity against Candida albicans MTCC 227 assessed as growth inhibition measured after overnight incubation by broth dilution method; format: functional
# Pseudomonas aeruginosa = experiment: Antimicrobial activity against Pseudomonas aeruginosa MTCC 2488 assessed as growth inhibition measured after overnight incubation by broth dilution method; format: functional
# Escherichia coli = experiment: Antimicrobial activity against Escherichia coli MTCC 443 assessed as growth inhibition measured after overnight incubation by broth dilution method; format: functional
# Streptococcus pyogenes = experiment: Antimicrobial activity against Streptococcus pyogenes MTCC 442 assessed as growth inhibition measured after overnight incubation by broth dilution method; format: functional
# Staphylococcus aureus = experiment: Antimicrobial activity against Staphylococcus aureus MTCC 96 assessed as growth inhibition measured after overnight incubation by broth dilution method; format: functional
# MDA-MB-468 = experiment: Antitumor activity against human MDA-MB-468 cells assessed as cell growth at 0.1 uM; format: functional; details: read-out: Activity
# T47D = experiment: Antitumor activity against human T47D cells assessed as cell growth at 0.1 uM; format: functional; details: read-out: Activity
# [4] = Antitumor activity against human Hs 578T cells assessed as cell growth at 0.1 uM; format: functional; details: read-out: Activity
# BT-549 = experiment: Antitumor activity against human BT549 cells assessed as cell growth at 0.1 uM; format: functional; details: read-out: Activity
# MDA-MB-231 = experiment: Antitumor activity against human MDA-MB-231/ATCC cells assessed as cell growth at 0.1 uM; format: functional; details: read-out: Activity
# DU-145 = experiment: Antitumor activity against human DU145 cells assessed as cell growth at 0.1 uM; format: functional; details: read-out: Activity
# MCF7 = experiment: Antitumor activity against human MCF7 cells assessed as cell growth at 0.1 uM; format: functional; details: read-out: Activity
# PC-3 = experiment: Antitumor activity against human PC3 cells assessed as cell growth at 0.1 uM; format: functional; details: read-out: Activity
# SK-MEL-2 = experiment: cells; details: Homo sapiens, SK-MEL-2, read-out: Activity
# Description: Antitumor activity against human SK-MEL-2 cells assessed as cell growth at 0.1 uM
compound,measurement,setting,value
COc1cc(OC)nc(NC(=O)CSc2nnc(-c3cccnc3SCc3ccccc3)o2)n1,growth at 0.1 µM,UO-31,80.6%
same,growth at 0.1 µM,TK-10,98.6%
same,growth at 0.1 µM,SN12C,106%
same,growth at 0.1 µM,RXF 393,107%
same,growth at 0.1 µM,ACHN,107%
same,growth at 0.1 µM,CAKI-1,99.5%
same,growth at 0.1 µM,A498,125%
same,growth at 0.1 µM,SK-OV-3,103%
same,growth at 0.1 µM,NCI/ADR-RES,102%
same,growth at 0.1 µM,OVCAR-8,105%
same,growth at 0.1 µM,OVCAR-5,101%
same,growth at 0.1 µM,OVCAR-3,102%
same,growth at 0.1 µM,OVCAR-4,100%
same,growth at 0.1 µM,IGROV-1,114%
same,growth at 0.1 µM,UACC-62,107%
same,growth at 0.1 µM,UACC-257,105%
same,growth at 0.1 µM,SK-MEL-5,105%
same,growth at 0.1 µM,SK-MEL-28,114%
same,growth at 0.1 µM,MDA-MB-435,105%
same,growth at 0.1 µM,M14,96.7%
same,growth at 0.1 µM,Malme-3M,98.2%
same,growth at 0.1 µM,LOX IMVI,97.6%
same,growth at 0.1 µM,U-251,106%
same,growth at 0.1 µM,SNB-75,92.5%
same,growth at 0.1 µM,SF-539,94.5%
same,growth at 0.1 µM,SNB-19,107%
same,growth at 0.1 µM,SF-295,97.1%
same,growth at 0.1 µM,SF-268,104%
same,growth at 0.1 µM,SW-620,107%
same,growth at 0.1 µM,HCT-15,105%
same,growth at 0.1 µM,HT-29,100%
same,growth at 0.1 µM,HCT-116,101%
same,growth at 0.1 µM,[1],109%
same,growth at 0.1 µM,NCI-H460,112%
same,growth at 0.1 µM,NCI-H522,88.2%
same,growth at 0.1 µM,NCI-H23,103%
same,growth at 0.1 µM,NCI-H226,101%
same,growth at 0.1 µM,HOP-62,99.7%
same,growth at 0.1 µM,[2],105%
same,growth at 0.1 µM,A549,96.5%
same,growth at 0.1 µM,SR,96.2%
same,growth at 0.1 µM,MOLT-4,93.2%
same,growth at 0.1 µM,RPMI-8226,101%
same,growth at 0.1 µM,K562,98.2%
same,growth at 0.1 µM,HL-60,97.3%
same,growth at 0.1 µM,CCRF-CEM,108%
same,growth inhibition (GI),[3],99%
same,MIC,"[3]; Mycobacterium tuberculosis, H37Rv",250 µg/mL
same,MIC,Aspergillus clavatus,500 µg/mL
same,MIC,Aspergillus niger,500 µg/mL
same,MIC,Candida albicans,500 µg/mL
same,MIC,Pseudomonas aeruginosa,250 µg/mL
same,MIC,Escherichia coli,100 µg/mL
same,MIC,Streptococcus pyogenes,125 µg/mL
same,MIC,Staphylococcus aureus,250 µg/mL
same,growth at 0.1 µM,MDA-MB-468,98.2%
same,growth at 0.1 µM,T47D,89.9%
same,growth at 0.1 µM,[4],107%
same,growth at 0.1 µM,BT-549,99.6%
same,growth at 0.1 µM,MDA-MB-231,108%
same,growth at 0.1 µM,DU-145,108%
same,growth at 0.1 µM,MCF7,95.5%
same,growth at 0.1 µM,PC-3,104%
same,growth at 0.1 µM,SK-MEL-2,102%
